Measurements: paper PMC5653977 (EMBO Molecular Medicine, 2017)
Structures can show the parent of a compound that is named as a salt.

What follows are compounds tested on NRG1-ERBB4 signaling (assay: Nrg1-ERBB4-PIK3R1 split TEV co-culture compound screen of the NIH Clinical Collection). Details: NIH Clinical Collection NCC-003 raw data; compounds ranked by Z-score; 'flagged' given instead of a Z-score.
Format: cell-based, human

Structure (SMILES)	Z-SCORE
CCC(C)n1ncn(-c2ccc(N3CCN(c4ccc(OCC5COC(Cn6cncn6)(c6ccc(Cl)cc6Cl)O5)cc4)CC3)cc2)c1=O (stereo not shown) [Itraconazole, reference compound]	-3.6
Cc1c(OCC(F)(F)F)ccnc1C[S+]([O-])c1nc2ccccc2[nH]1 (stereo not shown) [LANSOPRAZOLE]	-1.16
CC(=O)NC[C@H]1CN(c2ccc(N3CCOCC3)c(F)c2)C(=O)O1 [LINEZOLID]	-1.43
COc1ccc(CN2CCN(C(c3ccc(F)cc3)c3ccc(F)cc3)CC2)c(OC)c1OC.Cl.Cl [LOMERIZINE DiHCl]	-1.48
CN1CCN(C2=Nc3ccccc3Oc3ccc(Cl)cc32)CC1 [Loxapine succinate]	-1.14
CC(=O)O[C@]1(C(C)=O)CC[C@H]2[C@@H]3C=C(C)C4=CC(=O)CC[C@]4(C)[C@H]3CC[C@@]21C [MEGESTROL ACETATE]	-1.44
CC(C)(O)c1ccccc1CC[C@@H](SCC1(CC(=O)[O-])CC1)c1cccc(/C=C/c2ccc3ccc(Cl)cc3n2)c1.[Na+] [MONTELUKAST Na]	-1.21

Same assay, conditions: compound screen of the NIH Clinical Collection, sheet raw data NCC-003; compounds ranked by Z-score

Structure (SMILES)	Z-SCORE
COc1ccc2c(c1)c(CC(=O)O)c(C)n2C(=O)c1ccc(Cl)cc1 [Indomethacin]	0.08
CCCCC1=NC2(CCCC2)C(=O)N1Cc1ccc(-c2ccccc2-c2nnn[nH]2)cc1 [Irbesartan, reference compound]	4.26
O=c1c(O[C@@H]2O[C@H](CO)[C@@H](O)[C@H](O)[C@H]2O)c(-c2ccc(O)c(O)c2)oc2cc(O)cc(O)c12 [Isoquercitrin]	0.55
CN1CCC(=C2c3ccccc3CC(=O)c3sccc32)CC1 [KETOTIFEN FUMARATE]	-0.37
CO[C@@H]1[C@@H](O[C@@H]2O[C@H](C)[C@@H](O[C@H]3C[C@@](C)(O)[C@@H](OC(=O)CC(C)C)[C@H](C)O3)[C@H](N(C)C)[C@H]2O)[C@@H](CC=O)C[C@@H](C)[C@@H](O)/C=C/C=C/C[C@@H](C)OC(=O)C[C@H]1O [KITASAMYCIN]	1.6
CC(=O)N1CCN(c2ccc(OCC3COC(Cn4ccnc4)(c4ccc(Cl)cc4Cl)O3)cc2)CC1 (stereo not shown) [Ketoconazole]	-1.1
O=C(c1ccccc1)c1ccc2n1CCC2C(=O)O (stereo not shown) [Ketorolac tromethamine]	-0.4
CCOC(=O)C1=C(C)NC(C)=C(C(=O)OCC)C1c1ccccc1/C=C/C(=O)OC(C)(C)C [LACIDIPINE]	-0.35
Nc1ccn([C@@H]2CS[C@H](CO)O2)c(=O)n1 [LAMIVUDINE, reference compound]	0.14
Nc1nnc(-c2cccc(Cl)c2Cl)c(N)n1 [LAMOTRIGINE]	0.3
CC(C)OC(=O)CCC/C=C\C[C@@H]1[C@@H](CC[C@@H](O)CCc2ccccc2)[C@H](O)C[C@@H]1O [LATANOPROST]	-0.3
N#Cc1ccc(C(c2ccc(C#N)cc2)n2cncn2)cc1 [LETROZOLE]	-1.06
O=C(O)COCCN1CCN([C@H](c2ccccc2)c2ccc(Cl)cc2)CC1 [LEVOCETIRIZINE]	0.15
C[C@H]1COc2c(N3CCN(C)CC3)c(F)cc3c(=O)c(C(=O)O)cn1c23 [LEVOFLOXACIN]	-0.28
C#C[C@]1(O)CC[C@H]2[C@@H]3CCC4=CC(=O)CC[C@@H]4[C@H]3CC[C@@]21CC [LEVONORGESTREL]	-1.05
CCN1CCC[C@H]1CNC(=O)c1cc(S(N)(=O)=O)ccc1OC [LEVOSULPIRIDE]	-0.53
CCN(CC)CC(=O)Nc1c(C)cccc1C [LIDOCAINE]	1.02
CN1[C@@H](CC(=O)c2ccccc2)CCC[C@H]1C[C@H](O)c1ccccc1 [LOBELINE HYDROCHLORIDE]	0.14
CN(CCCN1c2ccccc2CCc2ccccc21)CC(=O)c1ccc(Cl)cc1 [LOFEPRAMINE]	-0.53
CC(Oc1c(Cl)cccc1Cl)C1=NCCN1 (stereo not shown) [LOFEXIDINE HCl]	-0.17
CC(=O)CCCCn1cnc2c1c(=O)n(C)c(=O)n2C [LOMIFYLLINE]	-0.7

Structure (SMILES)	Z-SCORE
CCOC(=O)N1CCC(=C2c3ccc(Cl)cc3CCc3cccnc32)CC1 [LORATADINE]	0.21
CCCCc1nc(Cl)c(CO)n1Cc1ccc(-c2ccccc2-c2nn[nH]n2)cc1 [LOSARTAN Potassium]	-0.12
CCOC(=O)O[C@]1(C(=O)OCCl)CC[C@H]2[C@@H]3CCC4=CC(=O)C=C[C@]4(C)[C@H]3[C@@H](O)C[C@@]21C [LOTEPREDNOL ETABONATE]	0.32
CC(C(=O)O)c1ccc(CC2CCCC2=O)cc1 (stereo not shown) [LOXOPROFEN SODIUM]	0.32
CCCc1c(OCCCCc2nnn[nH]2)ccc(C(C)=O)c1O [LY 171883]	2.04
O=C1Nc2ccc(Cl)cc2C(c2ccccc2Cl)=NC1O (stereo not shown) [Lorazepam]	0.53
COc1cc(C)nc(-n2nc(C)cc2OC)n1 [MEPIRIZOLE]	0.59
Cc1cccc(C)c1NC(=O)C1CCCCN1C (stereo not shown) [MEPIVACAINE HYDROCHLORIDE]	-0.39
C[C@@H](O)[C@H]1C(=O)N2C(C(=O)O)=C(S[C@@H]3CN[C@H](C(=O)N(C)C)C3)[C@H](C)[C@H]12 [MEROPENEM]	-0.25
C#C[C@]1(O)CC[C@H]2[C@@H]3CCc4cc(OC)ccc4[C@H]3CC[C@@]21C [MESTRANOL]	-0.21
C[C@]12CC[C@H](O)CC1=CC[C@@H]1[C@@H]2CC[C@@]2(C)[C@H]1CC[C@]2(C)O [METHYLANDROSTENEDIOL]	0.32
Cc1ncc([N+](=O)[O-])n1CCO [METRONIDAZOLE]	-0.28
Cc1ncc2n1-c1ccc(Cl)cc1C(c1ccccc1F)=NC2 [MIDAZOLAM HCl]	0.91
CC#C[C@]1(O)CC[C@H]2[C@@H]3CCC4=CC(=O)CCC4=C3[C@@H](c3ccc(N(C)C)cc3)C[C@@]21C [MIFEPRISTONE]	0.02
OCCN1C[C@H](O)[C@@H](O)[C@H](O)[C@H]1CO [MIGLITOL]	-0.33
Cc1[nH]c(=O)c(C#N)cc1-c1ccncc1 [MILRINONE]	-0.04
CCOc1cc(N)c(Cl)cc1C(=O)NCC1CN(Cc2ccc(F)cc2)CCO1 (stereo not shown) [MOSAPRIDE CITRATE]	0.73
COc1c(N2C[C@@H]3CCCN[C@@H]3C2)c(F)cc2c(=O)c(C(=O)O)cn(C3CC3)c12 [MOXIFLOXACIN HCl]	-0.35
COc1nc(C)nc(Cl)c1NC1=NCCN1.Cl [MOXONIDINE HCl]	0.68
CNCCCC12CCC(c3ccccc31)c1ccccc12.Cl [Maprotilline HCl]	1.18

Same assay, conditions: compounds at 10 μM, 24 h; PC12 split TEV assay cells co-cultured with Nrg1-expressing PC12 cells; analysed with cellHTS2

Structure (SMILES)	Z-SCORE
NCCc1ccc(O)c(O)c1 [Intropin, reference compound]	0.13
CCCCC1=NC2(CCCC2)C(=O)N1Cc1ccc(-c2ccccc2-c2nnn[nH]2)cc1 [Irbesartan, reference compound]	4.26
NNC(=O)c1ccncc1 [Isoniazid, reference compound]	-0.38
CC1=C(/C=C/C(C)=C/C=C/C(C)=C\C(=O)O)C(C)(C)CCC1 [Isotretinoin, reference compound]	-0.41
CC(C)NCC(O)c1ccc(O)c(O)c1 (stereo not shown) [Isuprel, reference compound]	-0.93
CCC(C)n1ncn(-c2ccc(N3CCN(c4ccc(OCC5COC(Cn6cncn6)(c6ccc(Cl)cc6Cl)O5)cc4)CC3)cc2)c1=O (stereo not shown) [Itraconazole, reference compound]	-3.6
CC(C(=O)O)c1cccc(C(=O)c2ccccc2)c1 (stereo not shown) [KETOPROFEN, reference compound]	0.15
OC(CCN1CCCC1)(c1ccccc1)C1CCCCC1 (stereo not shown) [Kemadrin, reference compound]	-0.51
N[C@@H](Cc1cc(I)c(Oc2cc(I)c(O)c(I)c2)c(I)c1)C(=O)O [L-THYROXINE, reference compound]	-0.07
CC(CCc1ccccc1)NCC(O)c1ccc(O)c(C(N)=O)c1 (stereo not shown) [LABETALOL HYDROCHLORIDE, reference compound]	-1.04
Nc1ccn([C@@H]2CS[C@H](CO)O2)c(=O)n1 [LAMIVUDINE, reference compound]	0.33
CCC[C@@H]1C[C@@H](C(=O)N[C@@H]([C@H]2O[C@H](SC)[C@H](O)[C@@H](O)[C@H]2O)[C@@H](C)O)N(C)C1 [Lincomycin hydrochloride, reference compound]	0.53
CC[C@H](C)C(=O)O[C@H]1C[C@@H](C)C=C2C=C[C@H](C)[C@H](CC[C@@H]3C[C@@H](O)CC(=O)O3)[C@H]21 [Lovastatin, reference compound]	flagged
C[N+]1(C)CCCC(OC(=O)C(O)(c2ccccc2)c2ccccc2)C1 (stereo not shown) [MEPENZOLATE BROMIDE, reference compound]	-0.58
C[C@H]1C[C@@H]2[C@H]([C@@H](O)C[C@@]3(C)[C@H]2CC[C@]3(O)C(=O)CO)[C@@]2(C)C=CC(=O)C=C12 [METHYLPREDNISOLONE, reference compound]	0.65
CC(C)(C(=O)c1cccnc1)c1cccnc1 [METYRAPONE, reference compound]	0.48
Clc1ccc(COC(Cn2ccnc2)c2ccc(Cl)cc2Cl)c(Cl)c1 (stereo not shown) [MICONAZOLE NITRATE, reference compound]	-0.69
CN(C)c1ccc(O)c2c1C[C@H]1C[C@H]3[C@H](N(C)C)C(O)=C(C(N)=O)C(=O)[C@@]3(O)C(O)=C1C2=O [MINOCYCLINE HYDROCHLORIDE, reference compound]	-0.02
O=C1c2c(O)ccc(O)c2C(=O)c2c(NCCNCCO)ccc(NCCNCCO)c21 [MITOXANTRONE, reference compound]	flagged
CCN(CC)CCNC(=O)c1cc(Cl)c(N)cc1OC.Cl [Maxolon, reference compound]	-1.12
COC(=O)Nc1nc2ccc(C(=O)c3ccccc3)cc2[nH]1 [Mebendazole, reference compound]	-4.63
Cc1ccc(Cl)c(Nc2ccccc2C(=O)O)c1Cl [Meclomen, reference compound]	-0.25
CC(=O)O[C@]1(C(C)=O)CC[C@H]2[C@@H]3C[C@H](C)C4=CC(=O)CC[C@]4(C)[C@H]3CC[C@@]21C [Medroxyprogesterone 17-acetate, reference compound]	-1.59
CC(=O)[C@H]1CC[C@H]2[C@@H]3C[C@H](C)C4=CC(=O)CC[C@]4(C)[C@H]3[C@@H](O)C[C@]12C [Medrysone, reference compound]	-1.74
Cc1cccc(Nc2ccccc2C(=O)O)c1C [Mefenamic Acid, reference compound]	0.34
